In patent US20260285850A1, “SUBSTITUTED OXAZOLIDINONES AND IMIDAZOLINONES AS HERBICIDES” (FMC CORPORATION, priority 2023, published 2026):

How the values were obtained:
Assay type in all cases: in vivo
[1] = tested on: wheat (Triticum aestivum); assay: Test A postemergence application, visual injury rating 0-100; conditions: 10 days
Procedure, shortened: (§1)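 Compound in a non-phytotoxic, surfactant-containing solvent is applied either as a directed soil spray before seedlings emerge or onto emerged plants 2-10 cm tall; pots hold a loam-sand blend. Plants grow 10 days under greenhouse conditions and are rated by eye against untreated controls (0 no effect, 100 complete control).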

[2] = tested on: oat, wild (wild oat, Avena fatua); assay: as above; conditions: 10 days
Procedure, shortened: as §1

[3] = tested on: palmer (palmer amaranth, palmer pigweed, Amaranthus palmeri); assay: as above; conditions: 10 days
Procedure, shortened: as §1

[4] = tested on: galium (catchweed bedstraw, Galium aparine); assay: as above; conditions: 10 days
Procedure, shortened: as §1

[5] = tested on: ryegrass, Italian (italian ryegrass, Lolium multiflorum); assay: as above; conditions: 10 days
Procedure, shortened: as §1

[6] = tested on: corn (Zea mays); assay: as above; conditions: 10 days
Procedure, shortened: as §1

[7] = tested on: green foxtail (Setaria viridis); assay: as above; conditions: 10 days
Procedure, shortened: as §1

[8] = tested on: kochia (Bassia scoparia); assay: as above; conditions: 10 days
Procedure, shortened: as §1

[9] = tested on: horseweed (Erigeron canadensis); assay: as above; conditions: 10 days
Procedure, shortened: as §1

[10] = tested on: soybean (Glycine max); assay: as above; conditions: 10 days
Procedure, shortened: as §1

[11] = tested on: blackgrass (Alopecurus myosuroides); assay: as above; conditions: 10 days
Procedure, shortened: as §1

[12] = tested on: ragweed (common ragweed, Ambrosia artemisiifolia); assay: as above; conditions: 10 days
Procedure, shortened: as §1

[13] = tested on: barnyardgrass (Echinochloa crus-galli); assay: as above; conditions: 10 days
Procedure, shortened: as §1

[14] = tested on: barnyardgrass (Echinochloa crusgalli); assay: Test B flooded paddy test, visual plant response rating 0-100; conditions: 250 g ai/ha, Flood, applied to paddy water, evaluated after 13 days
Procedure, shortened: (§2)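 Paddy-water application: test compounds went directly into water flooded 3 cm above the soil surface, with plants at 2 leaves. After a 13-day greenhouse period, responses were judged by eye relative to controls; a dash marks an untested entry.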

[15] = tested on: rice (Oryza sativa); assay: as above; conditions: 250 g ai/ha, Flood, applied to paddy water, evaluated after 13 days
Procedure, shortened: as §2

[16] = tested on: sedge, umbrella (small-flower umbrella sedge, Cyperus difformis); assay: as above; conditions: 250 g ai/ha, Flood, applied to paddy water, evaluated after 13 days
Procedure, shortened: as §2

[17] = tested on: ducksalad (Heteranthera limosa); assay: as above; conditions: 250 g ai/ha, Flood, applied to paddy water, evaluated after 13 days
Procedure, shortened: as §2

[18] = tested on: wheat (Triticum aestivum); assay: Test A preemergence soil spray, visual injury rating 0-100; conditions: 10 days, 0 = no effect, 100 = complete control
Procedure, shortened: as §1

[19] = tested on: oat, wild (wild oat, Avena fatua); assay: as above; conditions: 10 days, 0 = no effect, 100 = complete control
Procedure, shortened: as §1

[20] = tested on: palmer (palmer amaranth, palmer pigweed, Amaranthus palmeri); assay: as above; conditions: 10 days, 0 = no effect, 100 = complete control
Procedure, shortened: as §1

[21] = tested on: ryegrass, Italian (italian ryegrass, Lolium multiflorum); assay: as above; conditions: 10 days, 0 = no effect, 100 = complete control
Procedure, shortened: as §1

[22] = tested on: corn (Zea mays); assay: as above; conditions: 10 days, 0 = no effect, 100 = complete control
Procedure, shortened: as §1

[23] = tested on: green foxtail (Setaria viridis); assay: as above; conditions: 10 days, 0 = no effect, 100 = complete control
Procedure, shortened: as §1

[24] = tested on: kochia (Bassia scoparia); assay: as above; conditions: 10 days, 0 = no effect, 100 = complete control
Procedure, shortened: as §1

[25] = tested on: soybean (Glycine max); assay: as above; conditions: 10 days, 0 = no effect, 100 = complete control
Procedure, shortened: as §1

[26] = tested on: blackgrass (Alopecurus myosuroides); assay: as above; conditions: 10 days, 0 = no effect, 100 = complete control
Procedure, shortened: as §1

[27] = tested on: ragweed (common ragweed, Ambrosia artemisiifolia); assay: as above; conditions: 10 days, 0 = no effect, 100 = complete control
Procedure, shortened: as §1

[28] = tested on: barnyardgrass (Echinochloa crus-galli); assay: as above; conditions: 10 days, 0 = no effect, 100 = complete control
Procedure, shortened: as §1

[29] = 31 g ai/ha, postemergence, 0 = no effect, 100 = complete control
[30] = Postemergence, 125 g ai/ha, 0 is no effect, 100 is complete control

In the case of `CC1(C(=O)NC2CC=C(C(=O)OCC(F)(F)F)C2)CN(c2cc(F)cc(F)c2)C(=O)O1` (stereo not shown) [Compound 1], the “Wheat plant response rating (0-100)” value [1, 29] is reported as 90, the “Wheat plant response rating (0 to 100 scale)” value [1, 30] is reported as 90 and the “Oat, Wild plant response rating (0-100)” value [2, 29] is reported as 90. The “Oat, Wild plant response rating (0 to 100 scale)” value [2, 30] was 100, the “Amaranth, Palmer plant response rating (0-100)” value [3, 29] was 90 and the “Amaranth, Palmer / Pigweed, Palmer plant response rating (0 to 100 scale)” value [3, 30] was 90. The “Galium plant response rating (0-100)” value [4, 29] was 90, the “Galium plant response rating (0 to 100 scale)” value [4, 30] was 90 and the “Ryegrass, Italian plant response rating (0-100)” value [5, 29] was 80. For the same molecule, the “Ryegrass, Italian plant response rating (0 to 100 scale)” value [5, 30] was 80, the “Corn plant response rating (0-100)” value [6, 29] was 100 and the “Corn plant response rating (0 to 100 scale)” value [6, 30] was 100. The “Foxtail, Green plant response rating (0-100)” value [7, 29] was 90, the “Foxtail, Green plant response rating (0 to 100 scale)” value [7, 30] was 90 and the “Kochia plant response rating (0-100)” value [8, 29] was 70. The “Kochia plant response rating (0 to 100 scale)” value [8, 30] was 90, the “Horseweed plant response rating (0-100)” value [9, 29] was 70 and the “Horseweed plant response rating (0 to 100 scale)” value [9, 30] was 80. The “Soybean plant response rating (0-100)” value [10, 29] was 80, the “Soybean plant response rating (0 to 100 scale)” value [10, 30] was 90 and the “Blackgrass plant response rating (0-100)” value [11, 29] was 90. The “Blackgrass plant response rating (0 to 100 scale)” value [11, 30] was 100, the “Ragweed plant response rating (0-100)” value [12, 29] was 60 and the “Ragweed plant response rating (0 to 100 scale)” value [12, 30] was 70. The “Barnyardgrass plant response rating (0-100)” value [13, 29] was 100, the “Barnyardgrass plant response rating (0 to 100 scale)” value [13, 30] was 100 and the “Plant response rating, Barnyardgrass (0 to 100 scale, 0 is no effect and 100 is complete control)” value [14] was 95. The “Plant response rating, Rice (0 to 100 scale, 0 is no effect and 100 is complete control)” value [15] was 80, the “Plant response rating, Sedge, Umbrella (0 to 100 scale, 0 is no effect and 100 is complete control)” value [16] was 95 and the “Plant response rating, Ducksalad (0 to 100 scale, 0 is no effect and 100 is complete control)” value [17] was 60. For the same molecule, the “Wheat plant response rating (0-100)” value ([18]; 31 g ai/ha) was 90, the “Wheat plant response rating (0 to 100 scale)” value ([18]; 125 g ai/ha) was 100 and the “Oat, Wild plant response rating (0-100)” value ([19]; 31 g ai/ha) was 60. For the same molecule, the “Oat, Wild plant response rating (0 to 100 scale)” value ([19]; 125 g ai/ha) was 80, the “Amaranth, Palmer plant response rating (0-100)” value ([20]; 31 g ai/ha) was 90 and the “Amaranth, Palmer plant response rating (0 to 100 scale)” value ([20]; 125 g ai/ha) was 100. For the same molecule, the “Ryegrass, Italian plant response rating (0-100)” value ([21]; 31 g ai/ha) was 80, the “Ryegrass, Italian plant response rating (0 to 100 scale)” value ([21]; 125 g ai/ha) was 90 and the “Corn plant response rating (0-100)” value ([22]; 31 g ai/ha) was 60. For the same molecule, the “Corn plant response rating (0 to 100 scale)” value ([22]; 125 g ai/ha) was 90, the “Foxtail, Green plant response rating (0-100)” value ([23]; 31 g ai/ha) was 100 and the “Foxtail, Green plant response rating (0 to 100 scale)” value ([23]; 125 g ai/ha) was 100. For the same molecule, the “Kochia plant response rating (0-100)” value ([24]; 31 g ai/ha) was 50, the “Kochia plant response rating (0 to 100 scale)” value ([24]; 125 g ai/ha) was 100 and the “Soybean plant response rating (0-100)” value ([25]; 31 g ai/ha) was 70. The “Soybean plant response rating (0 to 100 scale)” value ([25]; 125 g ai/ha) was 90, the “Blackgrass plant response rating (0-100)” value ([26]; 31 g ai/ha) was 60 and the “Blackgrass plant response rating (0 to 100 scale)” value ([26]; 125 g ai/ha) was 70. The “Ragweed plant response rating (0-100)” value ([27]; 31 g ai/ha) was 20, the “Ragweed plant response rating (0 to 100 scale)” value ([27]; 125 g ai/ha) was 90 and the “Barnyardgrass plant response rating (0-100)” value ([28]; 31 g ai/ha) was 90. The “Barnyardgrass plant response rating (0 to 100 scale)” value ([28]; 125 g ai/ha) was 100.
